Measured values: the supplement of paper PMC10331698
± gives the standard deviation of the averaged measurements.

Legend:
Experiment in all cases: level (log10 ratio to DMSO vehicle control); higher = higher biomarker level / cell amount than vehicle control
[1] = compound: C=C(C)C(=O)OCCC(F)(F)C(F)(F)C(F)(F)C(F)(F)C(F)(F)C(F)(F)C(F)(F)C(F)(F)F [8:2 Fluorotelomer methacrylate] (in DMSO)
Method: (§1)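 BioMAP Diversity Plus panel of 12 human primary cell co-culture systems (3C, 4H, LPS, SAg, BT, BF4T, BE3C, CASM3C, HDF3CGF, KF3CT, MyoF, Mphg). Compounds were added 1 h before stimulation and left for 24 h (MyoF 48 h; BT 72 h for soluble read-outs or 6 d for IgG). Biomarkers were read by ELISA, cytotoxicity by SRB, PBMC viability and proliferation by Alamar Blue. Each well value was divided by the mean of 8 DMSO control wells on the same plate and log10 transformed; duplicate blinded samples were tested at 4 concentrations.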

[2] = compound: O=C(O)C(F)(F)C(F)(F)C(F)(F)C(F)(F)C(=O)O [Octafluoroadipic acid] (in DMSO)
Method: as §1

[3] = compound: O=C(O)C(F)(F)C(F)(F)C(F)(F)C(F)(F)C(F)(F)C(F)(F)C(F)(F)C(F)(F)C(F)(F)C(F)(F)F [Perfluoroundecanoic acid] (in DMSO); settings: 6700 nM
Method: as §1

[4] = compound: O=C(O)CCC(F)(C(F)(F)F)C(F)(F)F [4,4-bis(Trifluoromethyl)-4-fluoropropanoic acid] (in DMSO)
Method: as §1

[5] = compound: O=S(=O)(O)C(F)(F)C(F)(F)C(F)(F)C(F)(F)C(F)(F)C(F)(F)C(F)(F)F [Perfluoroheptanesulfonic acid] (in DMSO)
Method: as §1

[6] = compound: OCC(F)(F)C(F)(F)C(F)(F)C(F)F [1H,1H,5H-Perfluoropentanol] (in DMSO)
Method: as §1

[7] = compound: OCCC(F)(F)C(F)(F)C(F)(F)C(F)(F)F [4:2 Fluorotelomer alcohol] (in DMSO)
Method: as §1

Row | Test System | level (log10) ([1]; 6700 nM) | level (log10) ([1]; 20000 nM) | level (log10) ([2]; 6700 nM) | level (log10) ([2]; 20000 nM) | level (log10) ([2]; 60000 nM) | level (log10) [3] | level (log10) ([4]; 6700 nM) | level (log10) ([4]; 20000 nM) | level (log10) ([4]; 60000 nM) | level (log10) ([5]; 1500 nM) | level (log10) ([5]; 4400 nM) | level (log10) ([5]; 13000 nM) | level (log10) ([5]; 40000 nM) | level (log10) ([6]; 6700 nM) | level (log10) ([6]; 20000 nM) | level (log10) ([6]; 60000 nM) | level (log10) ([7]; 6700 nM) | level (log10) ([7]; 20000 nM) | level (log10) ([7]; 60000 nM)
1 | LPS:CD40 | 0.0345 ± 0.0092 | -0.028 ± 0.11 | -0.0035 ± 0.04 | -0.005 ± 0.0071 | -0.0245 ± 0.0064 | -0.019 ± 0.05 | 0.005 ± 0.027 | -0.0115 ± 0.021 | -0.0385 ± 0.0035 | 0.035 ± 0.075 | 0.029 ± 0.096 | 0.0625 ± 0.1 | 0.001 ± 0.14 | -0.017 ± 0.016 | -0.0085 ± 0.005 | 0.0145 ± 0.015 | -0.008 ± 0.016 | -0.041 ± 0.014 | -0.032
2 | 3C:CXCL8/IL-8 | -0.005 ± 0.017 | 0.0305 ± 0.012 | 0.001 ± 0.024 | -0.0095 ± 0.005 | 0.0215 ± 0.025 | -0.022 ± 0.02 | 0.0215 ± 0.039 | 0.014 ± 0.055 | 0.0285 ± 0.054 | 0.007 ± 0.086 | -0.0115 ± 0.013 | 0.0015 ± 0.03 | 0.055 ± 0.054 | 0.0115 ± 0.023 | 0.0035 ± 0.03 | 0.0545 ± 0.063 | -0.002 | 0.017 ± 0.031 | 0.044 ± 0.059
3 | BF4T:PAI-I | -0.0075 ± 0.0092 | 0.0055 ± 0.012 | -0.0045 ± 0.026 | -0.011 ± 0.013 | 0.007 ± 0.0071 | 0.007 ± 0.0085 | -0.002 ± 0.014 | -0.01 ± 0.013 | 0.008 ± 0.011 | 0.0205 ± 0.00071 | 0.01 | -0.0225 ± 0.011 | -0.0075 ± 0.025 | 0.01 ± 0.0085 | 0.0095 ± 0.018 | 0.0215 ± 0.026 | -0.0075 ± 0.023 | 0.0005 ± 0.035 | 0.0005 ± 0.00071
4 | SAg:CXCL9/MIG | 0.001 ± 0.0099 | 0.002 ± 0.0014 | -0.0075 ± 0.016 | 0.005 ± 0.0028 | 0.011 ± 0.0057 | 0.0005 ± 0.0064 | 0.0015 ± 0.0064 | 0.008 ± 0.0042 | 0.0035 ± 0.00071 | -0.0015 ± 0.0092 | -0.002 ± 0.018 | -0.004 ± 0.0085 | 0.008 | -0.0105 ± 0.00071 | 0.0005 ± 0.013 | 0.008 ± 0.023 | -0.0125 ± 0.0092 | 0.003 ± 0.0057 | 0.0105 ± 0.035
5 | BF4T:MMP-9 | -0.002 ± 0.059 | 0.026 ± 0.061 | -0.0075 ± 0.047 | -0.0065 ± 0.036 | 0.0165 ± 0.026 | -0.056 ± 0.04 | 0.0265 ± 0.042 | 0.0145 ± 0.022 | 0.015 ± 0.042 | 0.0155 ± 0.08 | -0.031 ± 0.033 | -0.0335 ± 0.054 | -0.003 ± 0.041 | -0.001 ± 0.0085 | 0.0065 ± 0.019 | 0.0035 ± 0.013 | -0.0075 ± 0.03 | -0.013 ± 0.0071 | -0.011 ± 0.031
6 | SAg:PBMC Cytotoxicity | -0.0215 ± 0.012 | 0.018 ± 0.011 | 0.0085 ± 0.0064 | -0.0165 ± 0.042 | 0.0155 ± 0.00071 | 0.006 ± 0.0028 | 0.004 ± 0.0042 | -0.0015 ± 0.0092 | 0.008 ± 0.027 | 0.026 ± 0.016 | -0.022 ± 0.033 | -0.0335 ± 0.00071 | 0.01 ± 0.033 | -0.005 ± 0.0042 | 0.0025 ± 0.013 | 0.035 ± 0.058 | -0.021 ± 0.023 | -0.0085 ± 0.0021 | -0.0095 ± 0.005
7 | 3C:HLA-DR | -0.0035 ± 0.035 | 0.0115 ± 0.028 | -0.007 ± 0.0099 | -0.004 ± 0.021 | 0.0035 ± 0.0078 | -0.023 ± 0.0014 | -0.0125 ± 0.023 | -0.0085 ± 0.012 | -0.0065 ± 0.0035 | 0.0125 ± 0.0064 | -0.0075 ± 0.0092 | -0.005 ± 0.024 | 0.008 ± 0.016 | -0.02 ± 0.0028 | -0.0075 ± 0.025 | 0.0385 ± 0.023 | -0.019 | -0.0145 ± 0.0092 | 0 ± 0.011
8 | 3C:CXCL9/MIG | -0.002 ± 0.0028 | 0.0055 ± 0.0035 | -0.002 ± 0.0028 | -0.0095 ± 0.015 | 0.006 ± 0.0085 | 0.0025 ± 0.005 | 0.006 ± 0.0071 | -0.0075 ± 0.0035 | 0.0015 ± 0.0064 | 0.006 ± 0.0014 | -0.006 ± 0.0071 | 0 ± 0.0057 | 0.0075 ± 0.011 | 0 ± 0.0057 | -0.0035 ± 0.0064 | 0.0105 ± 0.00071 | -0.01 ± 0.0057 | -0.0025 ± 0.0078 | 0 ± 0.0042
9 | LPS:CD142/Tissue Factor | 0.0615 ± 0.063 | 0.0315 ± 0.083 | -0.0105 ± 0.022 | 0.02 ± 0.034 | 0.0215 ± 0.0078 | -0.023 ± 0.014 | 0.045 ± 0.031 | 0.038 ± 0.059 | 0.02 ± 0.051 | 0.0145 ± 0.049 | 0.006 ± 0.0042 | 0.0615 ± 0.063 | 0.0555 ± 0.061 | -0.001 ± 0.021 | 0.017 ± 0.03 | 0.023 ± 0.021 | -0.0015 ± 0.0064 | -0.025 ± 0.047 | 0.0235 ± 0.016
10 | BE3C:CD54/ICAM-1 | -0.012 ± 0.018 | 0.002 ± 0.061 | -0.0085 ± 0.0078 | -0.0045 ± 0.013 | 0.01 ± 0.031 | 0.004 ± 0.016 | -0.007 | -0.019 ± 0.014 | -0.002 ± 0.0099 | 0.006 ± 0.027 | 0.0015 ± 0.022 | -0.0025 ± 0.036 | 0.0055 ± 0.052 | 0.0095 ± 0.042 | 0.02 ± 0.0014 | 0.0175 ± 0.028 | -0.019 ± 0.024 | -0.008 ± 0.0057 | 0.01 ± 0.0028
11 | SAg:CD62E/E-Selectin | -0.005 ± 0.013 | 0.0205 ± 0.023 | -0.0095 ± 0.077 | 0.0125 ± 0.053 | 0.0285 ± 0.029 | 0.034 ± 0.038 | -0.011 ± 0.011 | -0.0025 ± 0.021 | -0.013 ± 0.0028 | 0.0035 ± 0.043 | -0.03 ± 0.018 | 0.0025 ± 0.00071 | 0.0435 ± 0.0035 | -0.011 ± 0.018 | 0.008 ± 0.0071 | 0.0325 ± 0.035 | -0.0125 ± 0.011 | -0.001 ± 0.011 | 0.025 ± 0.016
12 | SAg:Proliferation | -0.0045 ± 0.053 | 0.052 ± 0.0028 | -0.021 ± 0.016 | -0.0095 ± 0.0092 | -0.0065 ± 0.059 | 0.0125 ± 0.059 | 0.007 ± 0.051 | -0.03 ± 0.044 | 0.0375 ± 0.053 | 0.0105 ± 0.026 | 0.0125 ± 0.029 | -0.024 ± 0.037 | 0.0325 ± 0.019 | -0.0155 ± 0.011 | -0.0635 ± 0.016 | 0.025 ± 0.055 | -0.041 ± 0.042 | -0.033 ± 0.0071 | -0.0025 ± 0.032
13 | BF4T:CXCL8/IL-8 | -0.026 ± 0.014 | -0.023 ± 0.021 | 0.0435 ± 0.0021 | -0.0005 ± 0.021 | 0.013 ± 0.05 | 0.0815 ± 0.026 | -0.0085 ± 0.03 | 0.028 ± 0.028 | 0.0115 ± 0.0021 | 0.015 ± 0.014 | 0.006 ± 0.0014 | 0.049 ± 0.0014 | 0.121 ± 0.02 | 0.037 ± 0.083 | 0.0505 ± 0.07 | 0.0685 ± 0.046 | 0.0235 ± 0.039 | 0.035 ± 0.0014 | 0.082 ± 0.0014
14 | BT:Secreted IgG | 0.0175 ± 0.012 | 0.028 ± 0.0085 | 0.0285 ± 0.033 | 0.028 ± 0.027 | 0.0435 ± 0.011 | 0.003 ± 0.011 | 0.019 ± 0.017 | -0.053 ± 0.062 | 0.0025 ± 0.005 | 0.0285 ± 0.0021 | 0.0265 ± 0.0064 | -0.006 ± 0.033 | 0.002 ± 0.045 | 0.044 ± 0.02 | 0.0295 ± 0.039 | 0.0475 ± 0.028 | 0.023 ± 0.028 | 0.0205 ± 0.018 | 0.013 ± 0.0057
15 | 3C:SRB | -0.0205 ± 0.0035 | -0.01 ± 0.021 | -0.007 ± 0.016 | -0.0045 ± 0.011 | -0.016 ± 0.0028 | 0.0095 ± 0.015 | -0.001 ± 0.0057 | 0.0045 ± 0.019 | 0.0125 ± 0.0078 | -0.0295 ± 0.023 | -0.0275 ± 0.0078 | -0.0065 ± 0.016 | -0.0125 ± 0.023 | -0.011 | -0.006 ± 0.03 | -0.015 ± 0.011 | -0.006 ± 0.0085 | -0.0065 ± 0.011 | -0.0045 ± 0.0092
